The record followed here is patent publication US10780092B2, “Fused pyrazine derivatives useful as soluble guanylate cyclase stimulators” (Merck Sharp & Dohme Corp., priority 2016, dated 2020).

For assay [1], the target named is human recombinant sGC enzyme (Homo sapiens (Human), UniProt Q02108+Q02153). The experiment in a line: SEC competition binding assay with [3H] Compound B radioligand. The conditions noted are these: displacement of 1.6 nM [3H] Compound B, 24 h at 37° C. A digest of the protocol:
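Recombinant human sGC incubated with 1.6 nM [3H] Compound B and test compounds for 24 h at 37° C. Buffer: 50 mM triethanolamine pH 7.4, 3 mM MgCl2, 0.025% BSA, 2 mM DTT, 300 μM DETA/NO, 400 μM GTP, 1% DMSO. Bound ligand separated by gel filtration and counted by scintillation; non-specific binding with 1 μM Compound B; Ki from one-site fit.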

The target of the next assay is sGC α1/β1 heterodimer (Homo sapiens (Human), UniProt Q02108+Q02153). In words: Cell-based sGC functional assay (CASA assay), cGMP by HTRF. The conditions noted are these: CHO-K1/sGC cells; for pEC50: inflection point of cGMP production, 4P fit, read-out: IP; for Emax: CHO-K1, cGMP production as percentage of maximum of compound A (set to 100%), read-out: % Activation. Summed up:
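CHO-K1 cells stably expressing human sGC α1/β1, with 0.5 mM IBMX, pre-incubated ±1 μM DETA-NO 30 min at 25° C, then compound 1 hr at 37° C (2.5% DMSO). cGMP by HTRF; activation as % of reference activator maximum, 4P fit giving inflection point and maximum […].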

In general, pKi refers to −log10 of the Ki, conventionally taken in molar units.

pEC50, pKi: −log10 of the molar value.

For `CC1(c2ccc(Cl)c(O)c2)C(=O)Nc2nc(-c3cn4ccnc4c(Cc4cccc(F)c4)n3)nc(NCC(O)C(F)(F)F)c21` (stereo not drawn) [Example 131-AB, 5-(4-Chloro-3-hydroxyphenyl)-2-{8-[(3-fluorophenyl)methyl]imidazo[1,2-a]pyrazin-6-yl}-5-methyl-4-[(3,3,3-trifluoro-2-hydroxypropyl)amino]-5,7-dihydro-6H-pyrrolo[2,3-d]pyrimidin-6-one], the pKi in assay [1] was 9.46. The “% Activation” value on sGC α1/β1 heterodimer (cGMP production as percentage of maximum of compound A (set to 100%)) amounted to 96%. In addition, the pEC50 at sGC α1/β1 heterodimer is 6.53.
Take `CN1CCN(c2nc(-c3cn4ccnc4c(Cc4ccc(F)cc4)n3)nc3c2C(C)(c2ccc(Cl)c(O)c2)C(=O)N3)CC1` (stereo not drawn) [Example 134-A, 5-(4-Chloro-3-hydroxy-phenyl)-2-{8-[(4-fluoro-phenyl)methyl]imidazo-[1,2-a]pyrazin-6-yl}-5-methyl-4-(4-methyl-piperazin-1-yl)-5,7-dihydro-6H-pyrrolo-[2,3-d]pyrimidin-6-one]: the pKi in assay [1] is 9.23. Further, at sGC α1/β1 heterodimer, the Emax amounted to 102% and the pEC50 was 6.48.
Taken in the same sequence, the figures for `CC1(c2cccc(O)c2)C(=O)Nc2nc(-c3cn4ccnc4c(Cc4ccc(F)cc4)n3)nc(N3CCC(F)(F)CC3)c21` (stereo not drawn) [Example 135-B, 4-(4,4-Difluoropiperidin-1-yl)-2-{8-[(4-fluoro-phenyl)methyl]imidazo-[1,2-a]-pyrazin-6-yl}-5-(3-hydroxyphenyl)-5-methyl-5,7-dihydro-6H-pyrrolo[2,3-d]pyrimidin-6-one] were 8.40, 103% and 6.02.
As for `CC1(c2ccc(Cl)c(O)c2)C(=O)Nc2nc(-c3cn4ccnc4c(Cc4ccc(F)cc4)n3)nc(N3CCC(F)(F)CC3)c21` (stereo not drawn) [Example 136-A, 5-(4-Chloro-3-hydroxy-phenyl)-4-(4,4-difluoro-piperidin-1-yl)-2-{8-[(4-fluorophenyl)methyl]-imidazo[1,2-a]pyrazin-6-yl}-5-methyl-5,7-dihydro-6H-pyrrolo[2,3-d]-pyrimidin-6-one], the pKi in assay [1] is 8.81. In addition, on sGC α1/β1 heterodimer, the Emax was determined as 66% and the pEC50 was 6.29.
Turning to `CC1(c2ccc(Cl)c(O)c2)C(=O)Nc2nc(-c3cn4ncnc4c(CCC(F)(F)C(F)(F)F)n3)nc(N3CCC(C(F)(F)F)CC3)c21` (stereo not drawn) [Example 137-A, 5-(4-Chloro-3-hydroxy-phenyl)-5-methyl-2-(8-(3,3,4,4,4-pentafluoro-butyl)-[1,2,4]triazolo-[1,5-a]pyrazin-6-yl)-4-(4-(trifluoromethyl)-piperidin-1-yl)-5,7-dihydro-6H-pyrrolo-[2,3-d]pyrimidin-6-one], the pKi in assay [1] is 8.58. Further, on sGC α1/β1 heterodimer, the Emax worked out at 99% and the pEC50 was 6.13.
For the compound `CC1(c2ccc(Cl)c(O)c2)C(=O)Nc2nc(-c3cn4ncnc4c(CCC(F)(F)C(F)(F)F)n3)nc(NCCC(F)(F)F)c21` (stereo not drawn) [Example 138-A, 5-(4-Chloro-3-hydroxy-phenyl)-5-methyl-2-(8-(3,3,4,4,4-pentafluoro-butyl)-[1,2,4]triazolo-[1,5-a]pyrazin-6-yl)-4-((3,3,3-trifluoropropyl)-amino)-5,7-dihydro-6H-pyrrolo[2,3-d]pyrimidin-6-one], in assay [1], the pKi is 8.34. For the same compound, on sGC α1/β1 heterodimer, the Emax is 65% and the pEC50 is 6.77.
With `CC1(c2ccc(Cl)c(O)c2)C(=O)Nc2nc(-c3cn4ncnc4c(CCC(F)(F)C(F)(F)F)n3)nc(NCCCC(F)(F)F)c21` (stereo not drawn) [Example 139-A, 5-(4-Chloro-3-hydroxy-phenyl)-5-methyl-2-(8-(3,3,4,4,4-pentafluoro-butyl)-[1,2,4]triazolo-[1,5-a]pyrazin-6-yl)-4-((4,4,4-trifluorobutyl)-amino)-5,7-dihydro-6H-pyrrolo[2,3-d]pyrimidin-6-one], the pKi in assay [1] was 8.45. At sGC α1/β1 heterodimer, the Emax was 68% and the pEC50 was 6.46.
Taken in the same sequence, the figures for `CC1(c2ccc(Cl)c(O)c2)C(=O)Nc2nc(-c3cn4c(N)cnc4c(Cc4cccc(F)c4)n3)nc(N)c21` (stereo not drawn) [Example 140-A, 4-Amino-2-(3-amino-8-[(3-fluorophenyl)methyl]imidazo[1,2-a]pyrazin-6-yl)-5-(4-chloro-3-hydroxyphenyl)-5-methyl-5,7-dihydro-6H-pyrrolo[2,3-d]pyrimidin-6-one] were 9.08, 101% and 6.09.
Taken in the same sequence, the figures for `CC1(c2cc(O)c(Cl)cn2)C(=O)Nc2nc(-c3cn4ccnc4c(CC4CCCC4)n3)nc(N)c21` (stereo not drawn) [Example 141-B, 4-amino-5-(5-chloro-4-hydroxypyridin-2-yl)-2-(8-(cyclopentylmethyl)-imidazo[1,2-a]pyrazin-6-yl)-5-methyl-5,7-dihydro-6H-pyrrolo-[2,3-d]pyrimidin-6-one] were 9.15, 99% and 5.87.
Taken in the same sequence, the figures for `CC1(c2cc(O)c(C#N)c(Cl)c2)C(=O)Nc2nc(-c3cn4ccnc4c(CC4CCCCC4)n3)nc(N)c21` (stereo not drawn) [Example 142-A, 4-(4-amino-2-{8-(cyclohexylmethyl)-imidazo[1,2-a]pyrazin-6-yl}-5-methyl-6-oxo-6,7-dihydro-5H-pyrrolo-[2,3-d]pyrimidin-5-yl)-2-chloro-6-hydroxy-benzonitrile] were 8.94, 74% and 5.45.
Consider `CC1(c2cc(O)c(C#N)c(Cl)c2)C(=O)Nc2nc(-c3cn4ccnc4c(Cc4ccccc4F)n3)nc(N)c21` (stereo not drawn) [Example 143-A, 4-(4-amino-2-{8-(2-fluorobenzyl)imidazo-[1,2-a]pyrazin-6-yl}-5-methyl-6-oxo-6,7-dihydro-5H-pyrrolo-[2,3-d]pyrimidin-5-yl)-2-chloro-6-hydroxy-benzonitrile], for which the pKi in assay [1] was 8.96. For the same compound, on sGC α1/β1 heterodimer, the Emax was 79% and the pEC50 was 5.53.
For the compound `CC1(c2cc(O)c(C#N)c(Cl)c2)C(=O)Nc2nc(-c3cn4ccnc4c(Cc4cccc(F)c4)n3)nc(N)c21` (stereo not drawn) [Example 144-A, 4-(4-amino-2-{8-(3-fluorobenzyl)imidazo-[1,2-a]pyrazin-6-yl}-5-methyl-6-oxo-6,7-dihydro-5H-pyrrolo-[2,3-d]pyrimidin-5-yl)-2-chloro-6-hydroxy-benzonitrile], the pKi in assay [1] is 9.48. On sGC α1/β1 heterodimer, the Emax was 91% and the pEC50 is 5.57.
The matching figures for `CC1(c2cc(O)c(C(F)(F)F)cn2)C(=O)Nc2nc(-c3cn4ccnc4c(Cc4cccc(F)c4)n3)nc(N)c21` (stereo not drawn) [Example 145-B, 4-amino-2-(8-{3-fluorobenzyl}imidazo-[1,2-a]pyrazin-6-yl)-5-(4-hydroxy-5-(trifluoromethyl)pyridin-2-yl)-5-methyl-5,7-dihydro-6H-pyrrolo-[2,3-d]pyrimidin-6-one]: 9.38, 91% and 5.61.
The matching figures for `CC1(c2cc(O)c(C(F)(F)F)cn2)C(=O)Nc2nc(-c3cn4ccnc4c(Cc4ccccc4F)n3)nc(N)c21` (stereo not drawn) [Example 146-B, 4-amino-2-(8-{2-fluorobenzyl}imidazo-[1,2-a]pyrazin-6-yl)-5-(4-hydroxy-5-(trifluoromethyl)-pyridin-2-yl)-5-methyl-5,7-dihydro-6H-pyrrolo-[2,3-d]pyrimidin-6-one]: 9.42, 96% and 5.63.
Consider `CC1(c2cc(O)c(C(F)(F)F)cn2)C(=O)Nc2nc(-c3cn4ccnc4c(CC4CCCCC4)n3)nc(N)c21` (stereo not drawn) [Example 147-B, 4-amino-2-{8-(cyclohexylmethyl)-imidazo[1,2-a]pyrazin-6-yl}-5-(4-hydroxy-5-(trifluoromethyl)pyridin-2-yl)-5-methyl-5,7-dihydro-6H-pyrrolo-[2,3-d]pyrimidin-6-one], for which the negative logarithm of the Ki (pKi) in assay [1] is 9.04. On sGC α1/β1 heterodimer, the Emax came out at 102% and the pEC50 was 5.92.
Consider `CC1(c2cc(O)c(Cl)cn2)C(=O)Nc2nc(-c3cn4ncnc4c(Cc4ccccc4F)n3)nc(N)c21` (stereo not drawn) [Example 148-B, 4-amino-5-(5-chloro-4-hydroxypyridin-2-yl)-2-{8-(2-fluorobenzyl)-[1,2,4]triazolo[1,5-a]-pyrazin-6-yl}-5-methyl-5,7-dihydro-6H-pyrrolo-[2,3-c]pyrimidin-6-one], for which the pKi in assay [1] was 9.58. Besides, on sGC α1/β1 heterodimer, the Emax was 105% and the pEC50 is 6.62.
For the compound `CC1(c2cc(O)c(C#N)c(Cl)c2)C(=O)Nc2nc(-c3cn4ncnc4c(Cc4ccccc4F)n3)nc(N)c21` (stereo not drawn) [Example 149-A, 4-(4-amino-2-{8-(2-fluorobenzyl)-[1,2,4]-triazolo[1,5-a]pyrazin-6-yl}-5-methyl-6-oxo-6,7-dihydro-5H-pyrrolo-[2,3-d]pyrimidin-5-yl)-2-chloro-6-hydroxy-benzonitrile], the pKi in assay [1] was 9.29. Besides, on sGC α1/β1 heterodimer, the Emax came to 54% and the pEC50 is 6.23.
In the case of `CC1(c2cc(O)c(C#N)c(Cl)c2)C(=O)Nc2nc(-c3cn4ncnc4c(CC4CCCCC4)n3)nc(N)c21` (stereo not drawn) [Example 150-A, 4-(4-amino-2-{8-(cyclohexylmethyl)-[1,2,4]triazolo[1,5-a]-pyrazin-6-yl}-5-methyl-6-oxo-6,7-dihydro-5H-pyrrolo-[2,3-d]pyrimidin-5-yl)-2-chloro-6-hydroxy-benzonitrile], the pKi in assay [1] is 9.00. For the same compound, at sGC α1/β1 heterodimer, the Emax is 96% and the pEC50 was 5.38.
